Data reported in patent publication US9474759B2 (priority 2011, dated 2016).

Tests used:
[1] = molecular target: TGEV 3CLpro (full-length, 6 His, recombinant) (Porcine transmissible gastroenteritis coronavirus strain Purdue, UniProt P0C6V2); assay: biochemical; parameters: species or system transmissible gastroenteritis virus (strain Miller)
HAV = assay: Cell-based screening, HAV (Example 2); parameters: species or system hepatitis A virus; settings: Picornaviridae; read-out: Inhibition [ED50 (μM)] against various viruses: Picornavirus, HAV
Procedure: (§1) 3. Cell-based screening of inhibitor. The effects of each inhibitor on the viral replication were examined. The list of viruses and corresponding cell lines are listed above in Table 2. Briefly, confluent cells were inoculated with virus at a MOI of 5 or 0.05 for 1 hr, and medium was replaced with medium containing mock-medium or each compound (up to 100 μM). The virus infected cells were further incubated for up to 96 hrs, and the replication of virus was measured by TCID50 assay with the 10-fold dilution of each sample used for virus titration (Reed and Muench, 1938). In some viruses, the virus protein and genome expression levels were detected by Western blot analysis and real-time qRT-PCR, respectively, as described below. The IC50s of the compounds were calculated.

MHV = assay: Cell-based screening, MHV in CCL-9.1 cells (Example 2); parameters: species or system mouse hepatitis virus; settings: Murine coronavirus; CCL-9.1 cells; read-out: Inhibition [ED50 (μM)] against various viruses: Coronavirus, MHV
FCV = assay: Cell-based screening, FCV in CRFK cells (Example 2); settings: Feline calicivirus; CRFK cells; read-out: Inhibition [ED50 (μM)] against various viruses: Calicivirus, FCV
Procedure: as §1

[2] = molecular target: MNV-1 3CLpro (codon-optimized, full-length, recombinant) (Norovirus, UniProt Q80J95); assay: biochemical; parameters: species or system murine norovirus-1 (GV)
[3] = molecular target: PV 3Cpro (codon-optimized, N-terminal 6 His, recombinant) (Poliovirus type 1, UniProt P03300); assay: biochemical; parameters: species or system poliovirus (poliomyelitis virus)
[4] = test system: 3CLpro of NV, MD145, MNV-1; format: biochemical, norovirus; settings: optimized FRET-based protease assay
[5] = molecular target: recombinant 3C or 3CL of MD145 (Norovirus Hu/GII.4/MD145-12/1987/US (Maryland virus), UniProt Q8V0P3); assay: FRET protease assay, MD145 3CL (Example 2); format: biochemical, norovirus strain MD145
HAV 3Cpro = HAV 3Cpro (Human hepatitis A virus genotype IB, UniProt P08617); assay: Optimized FRET protease assay, HAV 3Cpro (Example 3); format: biochemical
Procedure: Fluorogenic substrates with Edans and Dabcyl as a donor and quencher pair were purchased from Bachem (coronavirus substrate) or synthesized by GenScript. The viral proteases and the corresponding fluorogenic substrates are listed in Table 5, along with their sources.
Stock solutions (10 mM) of the substrates and the compounds were prepared in dimethyl sulfoxide (DMSO) and diluted in assay buffer. The assay buffer comprised 20 mM HEPES buffer containing NaCl (0 mM for HAV 3Cpro and 200 mM for all other proteases), 0.4 mM EDTA, Glycerol (60% for NV and MD145 3CLpro and 30% for TGEV and 229E 3CLpro), and 6 mM (NV and MD145 3CLpro and HAV 3Cpro)_or 4 mM (all other proteases) dithiothreitol (DTT) at pH 6 (coronavirus 3CLpro) or 8 (all other proteases). Each protease was mixed with serial dilutions of each compound or with DMSO in 25 μl of assay buffer and incubated at 37° C. for 30 min, followed by the addition of 25 μl of assay buffer containing substrate. Fluorescence readings were obtained using an excitation wavelength of 360 nm and an emission wavelength of 460 nm on a fluorescence microplate reader (FLx800; Biotek, Winooski, Vt.) at 1 h following the addition of substrate. The relative fluorescence units (RFU) were determined by subtracting background values (substrate-containing well without protease) from the raw fluorescence values. […]

MNV-1 = assay: Cell-based screening, MNV-1 in RAW267.4 cells (Example 2); parameters: species or system murine norovirus; settings: Norwalk virus; RAW267.4 cells; read-out: Inhibition [ED50 (μM)] against various viruses: Calicivirus, MNV-1
Procedure: as §1

[6] = molecular target: Norwalk virus 3CL protease (Norovirus, UniProt Q83883); assay: Recombinant NV protease fluorogenic substrate inhibition assay (Example 1); format: biochemical; settings: 30 min pre-incubation, 30° C., pH 8.0
Procedure: After a 30 minute incubation period, 5 μL of 12 μM Edans-[…]-Dabcyl (SEQ ID NO:1) substrate in DMSO was then added and the increase in fluorescence was monitored for 30 minutes at an excitation and emission wavelength of 360 and 460 nm, respectively. Using a HORIBA FluoroMax 4 spectrofluorometer. Hydrolysis curves were linear. The final enzyme and substrate concentrations were 2.5 μM and 300 nM, respectively. […] Furthermore, the nature of the cap was also important (compare, for example, inhibitors A and D).

[7] = test system: Norwalk virus (HG23 cells); assay: microbe, parasite or virus in culture; format: cell-based; settings: HG23, read-out: Inhibition [ED50 (μM)] against various viruses: Calicivirus, HG23 cells
FIPV-1146 = assay: Combination treatment of CA074-Me and GC373 on FIPV-1146 replication, MacSynergy II; format: cell-based, feline coronavirus; settings: GC373 alone at 0.05 μM, FIPV-infected CRFK cells
Procedure: The CRFK cells were incubated with GC373 (0.02˜0.2 μM), CA074-Me (0.5˜5 μM), or the combinations of GC373 (0.02˜0.2 μM) and CA074-Me (0.5˜5 μM) for 1 hr at 37° C. prior to inoculation of FIPV-1146 at an MOI of 0.05. After 24 hrs of incubation, virus replication was assessed with virus titration using the TCID50 method. Drug-drug interactions were analyzed by the three-dimensional model of Prichard and Shipman, using the MacSynergy II software at 95% confidence limits. Theoretical additive interactions were calculated from the dose-response curve for each compound individually, and the calculated additive surface was subtracted from the experimentally determined dose-response surface to give regions of synergistic or antagonistic interactions. The resulting surface appears as horizontal plane at 0% of synergy if the interactions of two compounds are additive. Any peak above or below this plane indicates synergy or antagonism, respectively.

Chain of HAV 3Cpro (P08617 1520-1738): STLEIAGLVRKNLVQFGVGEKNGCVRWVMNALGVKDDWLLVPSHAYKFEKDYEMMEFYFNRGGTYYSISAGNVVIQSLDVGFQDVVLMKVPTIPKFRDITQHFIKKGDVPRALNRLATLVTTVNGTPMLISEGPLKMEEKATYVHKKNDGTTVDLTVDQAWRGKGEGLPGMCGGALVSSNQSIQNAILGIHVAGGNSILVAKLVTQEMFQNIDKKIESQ
Chain of recombinant 3C or 3CL of MD145 (Q8V0P3 entry or part of it): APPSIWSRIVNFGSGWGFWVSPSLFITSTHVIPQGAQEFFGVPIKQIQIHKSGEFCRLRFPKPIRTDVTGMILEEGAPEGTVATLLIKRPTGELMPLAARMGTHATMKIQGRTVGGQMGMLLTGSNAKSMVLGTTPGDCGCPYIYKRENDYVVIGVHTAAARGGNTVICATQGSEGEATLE
Chain of TGEV 3CLpro (full-length, 6 His, recombinant) (P0C6V2 2879-3180): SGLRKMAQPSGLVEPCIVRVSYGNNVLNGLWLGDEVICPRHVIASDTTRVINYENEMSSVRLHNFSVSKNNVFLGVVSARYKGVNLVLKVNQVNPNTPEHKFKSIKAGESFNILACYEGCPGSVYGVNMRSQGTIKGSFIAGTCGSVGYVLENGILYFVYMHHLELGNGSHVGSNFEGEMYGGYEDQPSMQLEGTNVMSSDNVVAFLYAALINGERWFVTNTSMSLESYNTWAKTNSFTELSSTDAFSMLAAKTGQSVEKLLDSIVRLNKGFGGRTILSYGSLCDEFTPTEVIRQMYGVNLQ
Chain of Norwalk virus 3CL protease (Q83883 1101-1281): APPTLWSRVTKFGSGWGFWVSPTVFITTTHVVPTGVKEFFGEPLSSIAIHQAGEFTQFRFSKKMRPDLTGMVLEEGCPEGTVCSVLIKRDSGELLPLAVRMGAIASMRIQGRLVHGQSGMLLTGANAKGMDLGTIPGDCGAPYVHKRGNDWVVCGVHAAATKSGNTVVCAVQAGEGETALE
Chain of PV 3Cpro (codon-optimized, N-terminal 6 His, recombinant) (P03300 1566-1748 limits assumed): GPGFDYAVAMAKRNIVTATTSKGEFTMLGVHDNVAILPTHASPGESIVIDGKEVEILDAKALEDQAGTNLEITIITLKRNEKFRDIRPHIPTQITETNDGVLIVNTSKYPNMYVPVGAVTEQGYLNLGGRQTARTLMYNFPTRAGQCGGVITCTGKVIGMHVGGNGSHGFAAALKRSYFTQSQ
Chain of MNV-1 3CLpro (codon-optimized, full-length, recombinant) (Q80J95 995-1177): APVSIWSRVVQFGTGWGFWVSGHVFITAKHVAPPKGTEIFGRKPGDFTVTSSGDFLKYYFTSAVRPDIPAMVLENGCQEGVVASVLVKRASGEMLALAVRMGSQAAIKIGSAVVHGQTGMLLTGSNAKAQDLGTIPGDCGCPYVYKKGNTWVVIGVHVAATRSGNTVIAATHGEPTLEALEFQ

## CC(C)C[C@H](NC(=O)OCc1ccccc1)C(=O)N[C@H](C=O)C[C@@H]1CCNC1=O [GC373]
[1]
  IC50: 0.99 ± 0.12 µM
HAV
  EC50: > 100 µM
MHV
  EC50: 2 µM
FCV
  EC50: 65 µM
[2]
  IC50: 1.34 µM
[3]
  IC50: 2.02 ± 1.56 µM
[4]
  effect on the activity of 3CLpro of NV, MD145, MNV-1 (in words): highly effective
[5]
  IC50: 20.3 µM
HAV 3Cpro
  inhibitory effect on HAV 3Cpro (in words): all viral proteases except HAV 3Cpro
MNV-1
  EC50: 6.5 µM
[6]
  inhibitory activity against Norwalk virus 3CL protease (in words): dose-dependent inhibition
[7]
  EC50: 2.1 µM
FIPV-1146
  reduction of virus titers: 0.5 log10
